Tests used:
[1] = biological target: T1, Thymidylate kinase (Mycobacterium tuberculosis) (UniProt P9WKE1); assay: (§1) Kinetic parameter Vm of thymidine monophosphate kinase (TMPKmt) in Mycobacterium tuberculosis was determined; type: functional
T1 sequence (whole entry): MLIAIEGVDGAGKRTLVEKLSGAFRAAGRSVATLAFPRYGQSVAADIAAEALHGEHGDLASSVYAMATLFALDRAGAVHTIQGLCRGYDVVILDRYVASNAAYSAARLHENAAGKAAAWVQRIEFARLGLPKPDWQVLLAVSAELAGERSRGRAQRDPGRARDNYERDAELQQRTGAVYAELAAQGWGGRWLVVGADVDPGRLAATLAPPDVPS

[2] = biological target: T1, Thymidylate kinase (Mycobacterium tuberculosis); assay: as §1

Row | SMILES | Vm [1] [µM/min/mg] | Vm [2] [µM/min/mg]
1 | O=c1[nH]c(=O)n([C@H]2C[C@H](O)[C@@H](COP(=O)(O)O)O2)cc1F | 4.7 | –
2 | O=c1[nH]c(=O)n([C@H]2C[C@H](O)[C@@H](COP(=O)(O)O)O2)cc1Br | 9.8 | –
3 | O=c1ccn([C@H]2C[C@H](O)[C@@H](COP(=O)(O)O)O2)c(=O)[nH]1 | 3.5 | –
4 | Cc1cn([C@H]2C[C@H](O)[C@@H](COP(=O)(O)O)O2)c(=O)[nH]c1=O | – | 10.6
5 | O=c1[nH]c(=O)n([C@H]2C[C@H](O)[C@@H](COP(=O)(O)O)O2)cc1I | 7.5 | –

From ChEMBL document CHEMBL1136204, “Thymidine and thymidine-5'-O-monophosphate analogues as inhibitors of Mycobacterium tuberculosis thymidylate kinase” (Bioorg Med Chem Lett, 2003)
